The results in this text go back to ChEMBL document CHEMBL5352415, “Discovery of new macrophage M2 polarization modulators as multiple sclerosis treatment agents that enable the inflammation microenvironment remodeling” (Eur J Med Chem, 2022).

A short description of series [1]: Induction of M2 macrophage polarization in C57BL/6 mouse BMDM cells assessed as fold increase in Arg1 gene level at 1 uM incubated for 24 hrs by qRT-PCR analysis. It counts as functional.
In series [2] the target is RAC-alpha serine/threonine-protein kinase (Homo sapiens, UniProt P31749). The series is described as follows: Inhibition of AKT1 (unknown origin). It counts as binding.
A short description of series [3]: Induction of M2 macrophage polarization in C57BL/6 mouse BMDM cells assessed as fold increase in Ym1 gene level at 1 uM incubated for 24 hrs by qRT-PCR analysis. It counts as functional.
The target of series [4] is RAC-beta serine/threonine-protein kinase (Homo sapiens, UniProt P31751). Briefly: Inhibition of AKT2 (unknown origin). The class given is binding.
Series [5] deals with T1, RAC-alpha serine/threonine-protein kinase (Mus musculus, UniProt P31750). The series is described as follows: Inhibition of Akt phosphorylation at Ser473 in C57BL/6 mouse BMDM cells at 50 to 500 nM incubated for 24 hrs by Western blot analysis. The class given is cell-based. Particulars: 0.5 µM, dose 50-500 nM; call rule not given here.
In series [6] the target is T1, RAC-alpha serine/threonine-protein kinase. The series is described as follows: Inhibition of LPS-induced Akt phosphorylation at Ser473 in C57BL/6 mouse BMDM cells at 50 to 500 nM incubated for 24 hrs by Western blot analysis. The class given is cell-based. Particulars: 0.5 µM, dose 50-500 nM.
A short description of series [7]: Inhibition of LPS-induced M1 macrophage polarization in C57BL/6 mouse BMDM cells assessed as fold decrease in Inos gene level at 1 uM preincubated with LPS for 24 hrs followed by compound addition and measured after 24 hrs by qRT-PCR analysis (reference value: 524.05 +/- 24.75). It counts as functional.
Series [8] is described as follows: Inhibition of M1 macrophage polarization in C57BL/6 mouse BMDM cells assessed as fold decrease in Inos gene level at 1 uM incubated for 24 hrs by qRT-PCR analysis (reference value: 1). The class given is functional.

RAC-beta serine/threonine-protein kinase, sequence (P31751 whole entry): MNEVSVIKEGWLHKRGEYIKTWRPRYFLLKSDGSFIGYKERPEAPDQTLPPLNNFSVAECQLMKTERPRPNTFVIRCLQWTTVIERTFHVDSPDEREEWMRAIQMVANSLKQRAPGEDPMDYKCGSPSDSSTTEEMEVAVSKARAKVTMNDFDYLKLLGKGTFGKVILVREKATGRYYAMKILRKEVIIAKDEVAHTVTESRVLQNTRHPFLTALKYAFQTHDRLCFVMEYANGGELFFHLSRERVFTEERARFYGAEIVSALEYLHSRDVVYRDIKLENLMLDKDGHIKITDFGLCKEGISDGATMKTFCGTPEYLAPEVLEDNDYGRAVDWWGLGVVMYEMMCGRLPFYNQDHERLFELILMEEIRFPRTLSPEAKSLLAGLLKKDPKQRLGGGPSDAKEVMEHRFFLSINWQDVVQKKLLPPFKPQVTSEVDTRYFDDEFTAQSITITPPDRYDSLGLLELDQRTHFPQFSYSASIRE
RAC-alpha serine/threonine-protein kinase (Homo sapiens, UniProt P31749), sequence (P31749 whole entry): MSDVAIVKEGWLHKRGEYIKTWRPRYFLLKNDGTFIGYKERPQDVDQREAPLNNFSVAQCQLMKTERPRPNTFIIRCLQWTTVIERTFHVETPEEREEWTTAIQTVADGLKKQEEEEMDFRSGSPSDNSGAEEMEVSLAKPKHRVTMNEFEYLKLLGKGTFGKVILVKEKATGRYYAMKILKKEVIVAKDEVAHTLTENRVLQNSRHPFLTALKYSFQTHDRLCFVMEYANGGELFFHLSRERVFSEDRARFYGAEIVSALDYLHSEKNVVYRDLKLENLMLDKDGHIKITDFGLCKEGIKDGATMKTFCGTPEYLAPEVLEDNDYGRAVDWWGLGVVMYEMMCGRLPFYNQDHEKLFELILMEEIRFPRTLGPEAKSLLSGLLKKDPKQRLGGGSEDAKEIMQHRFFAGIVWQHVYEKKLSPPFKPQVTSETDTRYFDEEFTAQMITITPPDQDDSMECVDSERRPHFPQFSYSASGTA
T1 sequence (P31750 whole entry): as the sequence (P31749 whole entry) above, with S2N, A50S, T100A, K112R, E117T, K389T, G410N, H415D counted along it

As to `CCCc1cc(C(=O)N[C@@H]2CNCC[C@H]2c2ccc(F)c(F)c2)ccc1-c1c(Cl)cnn1C.Cl`, the results for the “fold change (FC)” value in series [1] and in series [3] were 1.92 and 3.47, respectively. In addition, inhibition in series [2] was half-maximal at 245 nM (IC50).

On to `CCCc1cc(C(=O)N[C@@H]2CNCC[C@H]2c2ccc(F)c(F)c2)ccc1-c1c(Br)cnn1C.Cl`, for which the “fold change (FC)” value in series [1] stood at 1.42; in series [3] it was 3.86. The IC50 in series [2] and in series [4] was over 1000 nM throughout.

For `Cc1cc(C(=O)N[C@@H]2CNCC[C@H]2c2ccc(F)c(F)c2)ccc1-c1c(Cl)cnn1C.Cl`, the “fold change (FC)” value in series [1] is recorded as 1.55; in series [3] it was 12.2. The IC50 in series [2] was 299 nM. Also, the “inhibition (INH)” value in series [5] and in series [6] was “Not Active” in each case.

Regarding `Cl.O=C(N[C@@H]1CNCC[C@H]1c1ccc(F)c(F)c1)c1c(F)cc(-c2[nH]ncc2Br)cc1F`, the “fold change (FC)” value in series [1] is given as 2.38; in series [3], 19.79. The compound further came in with an IC50 in series [2] of over 1000 nM.

As for `Cn1nccc1-c1ccc2c(c1)CN([C@@H]1CNCC[C@H]1c1ccc(F)c(F)c1)C2=O`, the “fold change (FC)” value came to 2.24 in series [1] and 3.59 in series [3]. This compound gave an IC50 in series [2] of 4.3 nM.

`Cc1cc(C(=O)N[C@@H]2CNCC[C@H]2c2ccc(F)c(F)c2)ccc1-c1ccnn1C.Cl`: the “fold change (FC)” value in series [1] worked out at 8.13; in series [7], 313.7; in series [3] it was 14.49; in series [8] it was 0.82. Further, in series [2], half-maximal inhibition (IC50) required 102 nM.

Consider `Cn1ncc(Br)c1-c1ccc2c(c1)CN([C@@H]1CNCC[C@H]1c1ccc(F)c(F)c1)C2=O`, for which the “fold change (FC)” value is reported as 1.93 in series [1] and 7.52 in series [3]. Further, the results for the IC50 in series [2] and in series [4] were 1.6 nM and 2.7 nM, respectively.

In the case of `CC(C)c1cc(C(=O)N[C@@H]2CNCC[C@H]2c2ccc(F)c(F)c2)ccc1-c1c(Cl)cnn1C.Cl`, the “fold change (FC)” value is 2.77 in series [1] and 5.03 in series [3]. In addition, the midpoint of inhibition in series [2], the IC50, lay at 69.3 nM.

For `Cl.O=C(N[C@@H]1CNCC[C@H]1c1ccc(F)c(F)c1)c1c(F)cc(-c2ccn[nH]2)cc1Cl`, the entries for the “fold change (FC)” value in series [1] and in series [3] were 1.39 and 1.94, respectively. For the same compound, the IC50 in series [2] was 69.2 nM.

Turning to `CC(C)c1cc(C(=O)N[C@@H]2CNCC[C@H]2c2ccc(F)c(F)c2)ccc1-c1c(Br)cnn1C.Cl`, the “fold change (FC)” value in series [1] is 2.6; in series [3], 4.49. The IC50 in series [2] and in series [4] was over 1000 nM in each case.

On to `Cn1ncc(Cl)c1-c1ccc(C(=O)N[C@@H]2CNCC[C@H]2c2ccc(F)c(F)c2)cc1`, for which the “fold change (FC)” value in series [1] is reported as 2.41; in series [3], 8.63. This compound also returned an IC50 in series [2] of 5 nM.

Take `Cl.Cn1nccc1-c1ccc(C(=O)N[C@@H]2CNCC[C@H]2c2ccc(F)c(F)c2)cc1C1CC1`: the figures for the “fold change (FC)” value in series [1] and in series [3] were 3.31 and 1.38, respectively. In addition, the figures for the IC50 in series [2] and in series [4] were 157 nM and over 1000 nM, respectively.

`CC(C)c1cc(C(=O)N[C@@H]2CNCC[C@H]2c2ccc(F)c(F)c2)ccc1-c1ccnn1C.Cl`: the “fold change (FC)” value in series [1] and in series [3] was 2.06 each time. In addition, the IC50 was 555 nM in series [2] and over 1000 nM in series [4].

`Cc1cc(C(=O)N[C@@H]2CNCC[C@H]2c2ccc(F)c(F)c2)ccc1-c1c(Br)cnn1C.Cl`: the entries for the “fold change (FC)” value in series [1] and in series [3] were 2.62 and 4.87, respectively. The IC50 is 341 nM in series [2] and over 1000 nM in series [4].

Consider `Cl.Cn1ncc(Cl)c1-c1ccc(C(=O)N[C@@H]2CNCC[C@H]2c2ccc(F)c(F)c2)cc1C1CC1`, for which the entries for the “fold change (FC)” value in series [1] and in series [3] were 2.62 and 3.51, respectively. The same compound gave a half-maximal inhibitory concentration (IC50) in series [2] of 143 nM.

In the case of `Cl.O=C(N[C@@H]1CNCC[C@H]1c1ccc(F)c(F)c1)c1c(F)cc(-c2ccn[nH]2)cc1F`, the “fold change (FC)” value in series [1] came out at 1.72; in series [3], 8.14. For the same compound, the IC50 is 28 nM in series [2] and over 1000 nM in series [4].

Take `CCCc1cc(C(=O)N[C@@H]2CNCC[C@H]2c2ccc(F)c(F)c2)ccc1-c1ccnn1C.Cl`: the “fold change (FC)” value in series [1] was determined as 1.43; in series [3] it was 3.84. Further, the IC50 in series [2] worked out at 92 nM.
